Like-named read-outs stand apart in the source and are kept apart here.
Biological target: recombinant human baculovirus-expressed cMET (Homo sapiens (Human), UniProt P08581)
Experiment: c-MET kinase assay (HTRF KinEASE)
Type: biochemical
Settings: read-out: c-MET IC50
[1] = average of two or more determinations

SMILES | IC50 [1] [nM] | IC50 [nM]
Cn1ccnc1-c1cc(Oc2ccc(NC(=O)c3cccn(-c4ccc(F)cc4)c3=O)cc2F)c2ccnn2c1 [Example 90, 1-(4-Fluoro-phenyl)-2-oxo-1,2-dihydro-pyridine-3-carboxylic acid{3-fluoro-4-[6-(1-methyl-1H-imidazol-2-yl)-pyrazolo[1,5-a]pyridin-4-yloxy]-phenyl}-amide] | < 10 | 
Cn1cnc(-c2cc(Oc3ccc(NC(=O)c4cn(CCO)c(=O)n(-c5ccc(F)cc5)c4=O)cc3F)c3ccnn3c2)c1 [Example 97, 3-(4-Fluoro-phenyl)-1-(2-hydroxy-ethyl)-2,4-dioxo-1,2,3,4-tetrahydro-pyrimidine-5-carboxylic acid{3-fluoro-4-[6-(1-methyl-1H-imidazol-4-yl)-pyrazolo[1,5-a]pyridin-4-yloxy]-phenyl}-amide] | < 10 | 
Cc1ccc(C(=O)Nc2ccc(Oc3cc(-c4ncco4)cn4nccc34)c(F)c2)c(=O)n1-c1ccc(F)cc1 [Example 98, 1-(4-Fluoro-phenyl)-6-methyl-2-oxo-1,2-dihydro-pyridine-3-carboxylic acid [3-fluoro-4-(6-oxazol-2-yl-pyrazolo[1,5-a]pyridin-4-yloxy)-phenyl]-amide] | < 10 | 
CC(C)n1cc(C(=O)Nc2ccc(Oc3cc(-c4ncco4)cn4nccc34)c(F)c2)c(=O)n(-c2ccc(F)cc2)c1=O [Example 99, 3-(4-Fluoro-phenyl)-1-isopropyl-2,4-dioxo-1,2,3,4-tetrahydro-pyrimidine-5-carboxylic acid[3-fluoro-4-(6-oxazol-2-yl-pyrazolo[1,5-a]pyridin-4-yloxy)-phenyl]-amide] |  | < 10
CCn1cc(C(=O)Nc2ccc(Oc3cc(-c4cncn4C)cn4nccc34)c(F)c2)c(=O)n(-c2ccc(F)cc2)c1=O [Example 100, 1-Ethyl-3-(4-fluoro-phenyl)-2,4-dioxo-1,2,3,4-tetrahydro-pyrimidine-5-carboxylic acid{3-fluoro-4-[6-(3-methyl-3H-imidazol-4-yl)-pyrazolo[1,5-a]pyridin-4-yloxy]-phenyl}-amide] | < 10 | 
O=C(Nc1ccc(Oc2cc(-c3cncs3)cn3nccc23)c(F)c1)c1cccn(-c2ccc(F)cc2)c1=O [Example 105, 1-(4-Fluoro-phenyl)-2-oxo-1,2-dihydro-pyridine-3-carboxylic acid[3-fluoro-4-(6-thiazol-5-yl-pyrazolo[1,5-a]pyridin-4-yloxy)-phenyl]-amide] | < 10 | 
CC(C)n1cc(C(=O)Nc2ccc(Oc3cc(-c4cscn4)cn4nccc34)c(F)c2)c(=O)n(-c2ccc(F)cc2)c1=O [Example 106, 3-(4-Fluoro-phenyl)-1-isopropyl-2,4-dioxo-1,2,3,4-tetrahydro-pyrimidine-5-carboxylic acid[3-fluoro-4-(6-thiazol-4-yl-pyrazolo[1,5-a]pyridin-4-yloxy)-phenyl]-amide] | < 10 | 
Cn1cnc(-c2cc(Oc3ccc(NC(=O)C4(C(=O)Nc5ccc(F)cc5)CC4)cc3F)c3ccnn3c2)c1 [Example 108, Cyclopropane-1,1-dicarboxylic acid{3-fluoro-4-[6-(1-methyl-1H-imidazol-4-yl)-pyrazolo[1,5-a]pyridin-4-yloxy]-phenyl}-amide(4-fluoro-phenyl)-amide] | < 10 | 
CCn1cc(C(=O)Nc2ccc(Oc3cc(-c4cn(C)cn4)cn4nccc34)c(C)c2)c(=O)n(-c2ccc(F)cc2)c1=O [Example 109, 1-Ethyl-3-(4-fluoro-phenyl)-2,4-dioxo-1,2,3,4-tetrahydro-pyrimidine-5-carboxylic acid{3-methyl-4-[6-(1-methyl-1H-imidazol-4-yl)-pyrazolo[1,5-a]pyridin-4-yloxy]-phenyl}-amide] | < 10 | 
CCOc1ccn(-c2ccc(F)cc2)c(=O)c1C(=O)Nc1ccc(Oc2cc(-c3cn(C)cn3)cn3nccc23)c(F)c1 [Example 112, 4-Ethoxy-1-(4-fluoro-phenyl)-2-oxo-1,2-dihydro-pyridine-3-carboxylic acid {3-fluoro-4-[6-(1-methyl-1H-imidazol-4-yl)-pyrazolo[1,5-a]pyridin-4-yloxy]-phenyl}-amide] | < 10 | 
CCn1cc(C(=O)Nc2ccc(Oc3cc(-c4cn(C)cn4)cn4nccc34)nc2)c(=O)n(-c2ccc(F)cc2)c1=O [Example 115, 1-Ethyl-3-(4-fluoro-phenyl)-2,4-dioxo-1,2,3,4-tetrahydro-pyrimidine-5-carboxylic acid{6-[6-(1-methyl-1H-imidazol-4-yl)-pyrazolo[1,5-a]pyridin-4-yloxy]-pyridin-3-yl}-amide] | < 10 | 
CC(C)n1cc(C(=O)Nc2ccc(Oc3cc(-c4cn(C)cn4)cn4nccc34)nc2)c(=O)n(-c2ccc(F)cc2)c1=O [Example 116, 3-(4-Fluoro-phenyl)-1-isopropyl-2,4-dioxo-1,2,3,4-tetrahydro-pyrimidine-5-carboxylic acid{6-[6-(1-methyl-1H-imidazol-4-yl)-pyrazolo[1,5-a]pyridin-4-yloxy]-pyridin-3-yl}-amide] | < 10 | 
CCOc1ccn(-c2ccc(F)cc2)c(=O)c1C(=O)Nc1ccc(Oc2cc(-c3cn(C)cn3)cn3nccc23)cc1 [Example 118, 4-Ethoxy-1-(4-fluoro-phenyl)-2-oxo-1,2-dihydro-pyridine-3-carboxylic acid {4-[6-(1-methyl-1H-imidazol-4-yl)-pyrazolo[1,5-a]pyridin-4-yloxy]-phenyl}-amide] | < 10 | 
CCn1cc(C(=O)Nc2ccc(Oc3cc(-c4cn(C)cn4)cn4nccc34)c(OCc3ccccc3)c2)c(=O)n(-c2ccc(F)cc2)c1=O [Example 119] | 10 to 100 | 
CCn1cc(C(=O)Nc2ccc(Oc3cc(-c4cn(C)cn4)cn4nccc34)c(O)c2)c(=O)n(-c2ccc(F)cc2)c1=O [Example 120, 1-Ethyl-3-(4-fluoro-phenyl)-2,4-dioxo-1,2,3,4-tetrahydro-pyrimidine-5-carboxylic acid{3-hydroxy-4-[6-(1-methyl-1H-imidazol-4-yl)-pyrazolo[1,5-a]pyridin-4-yloxy]-phenyl}-amide] | 10 to 100 | 
CC(C)n1cc(C(=O)Nc2ccc(Oc3cc(-c4cn(C)cn4)cn4nccc34)c(OCc3ccccc3)c2)c(=O)n(-c2ccc(F)cc2)c1=O [Example 121, 3-(4-Fluoro-phenyl)-1-isopropyl-2,4-dioxo-1,2,3,4-tetrahydro-pyrimidine-5-carboxylic acid {3-benzyloxy-4-[6-(1-methyl-1H-imidazol-4-yl)-pyrazolo[1,5-a]pyridine-4-yloxy]-phenyl}-amide] | 10 to 100 | 
CC(C)n1cc(C(=O)Nc2ccc(Oc3cc(-c4cn(C)cn4)cn4nccc34)c(O)c2)c(=O)n(-c2ccc(F)cc2)c1=O [Example 122, 3-(4-Fluoro-phenyl)-1-isopropyl-2,4-dioxo-1,2,3,4-tetrahydro-pyrimidine-5-carboxylic acid{3-hydroxy-4-[6-(1-methyl-1H-imidazol-4-yl)-pyrazolo[1,5-a]pyridin-4-yloxy]-phenyl}-amide] | 10 to 100 | 
CCCCCn1cc(C(=O)Nc2ccc(Oc3cc(-c4cn(C)cn4)cn4nccc34)c(F)c2)c(=O)n(-c2ccc(F)cc2)c1=O [Example 123, 3-(4-Fluoro-phenyl)-2,4-dioxo-1-pentyl-1,2,3,4-tetrahydro-pyrimidine-5-carboxylic acid{3-fluoro-4-[6-(1-methyl-1H-imidazol-4-yl)-pyrazolo[1,5-a]pyridin-4-yloxy]-phenyl}-amide] | < 10 | 

Source: patent US9914731B2, “Pyrazolo[1,5-a]pyridine derivatives and methods of their use” (Ignyta, Inc., priority 2013, dated 2018)
